Reference: US20170121344A1 (Siga Technologies, Inc., priority 2009, published 2017)
Like-named read-outs stand apart in the source and are kept apart here.

Test system: Dengue-2 (Strain New Guinea C)
Test: Viral yield assay against Dengue-2 in Vero cells
Format: cell-based, Dengue virus
Conditions: Dengue virus
Procedure, shortened: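 Vero cells were infected with dengue-2 at MOI 0.1, treated with compound (DMSO control), and kept at 37° C. They were harvested 48 hours post infection and yield was titered on Vero cells. EC50 came from the yield curve, and the other serotypes were run in a similar way.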

[1] = Vero, 48 h, read-out: Activity (EC50 class) against Dengue-2 Virus in Vero cells
[2] = Vero cells, MOI 0.1, harvested 48 hours post infection, read-out: Activity (EC50 class) against Dengue-2 Virus in Vero cells
[3] = DENV2, viral yield assay, Vero cells, MOI 0.1, 48 hours post infection, read-out: Activity (EC50 in μM) DENV-2

SMILES	EC50 [2] [µM]	EC50 [3] [µM]	also measured
Cc1c(C(=O)Nc2nccs2)sc2nc(-c3cccs3)cc(C(F)(F)F)c12 [Compound 386, 3-methyl-N-thiazol-2-yl-6-(2-thienyl)-4-(trifluoromethyl)thieno[2,3-b]pyridine-2-carboxamide]			EC50 (DENV2, Vero, 48 h, read-out: Activity (EC50 in μM) DENV-2): < 5 µM
Cc1cc(C)c2c(N)c(C(=O)Nc3cccc(C(F)(F)F)c3)sc2n1 [Compound 9, 3-Amino-4,6-dimethyl-thieno[2,3-b]pyridine-2-carboxylic acid (3-trifluoromethyl-phenyl)-amide]			EC50 [1]: < 5 µM
Cc1cc(C)c(NC(=O)c2sc3nc4c(cc3c2N)C(=O)CCC4)c(C)c1 [Compound 94, 3-Amino-5-oxo-5,6,7,8-tetrahydro-thieno[2,3-b]quinoline-2-carboxylic acid (2,4,6-trimethyl-phenyl)-amide]	5 to 25		
COc1ccccc1NC(=O)c1sc2nc(-c3ccc(C)cc3)ccc2c1N [Compound 643, 3-amino-N-(2-methoxyphenyl)-6-(p-tolyl)thieno[2,3-b]pyridine-2-carboxamide]		< 5	
COc1cccc(-c2ccc3c(N)c(C(=O)Nc4ccc(C)cc4C)sc3n2)c1 [Compound 554, 3-amino-N-(2,4-dimethylphenyl)-6-(3-methoxyphenyl)thieno[2,3-b]pyridine-2-carboxamide]		< 5	
CC1(C)Cc2c(c(N3CCOCC3)nc3sc(C(=O)N4CCOCC4)c(N)c23)CO1 [Compound 234, (1-Amino-8,8-dimethyl-5-morpholin-4-yl-8,9-dihydro-6H-7-oxa-3-thia-4-aza-cyclopenta[a]naphthalen-2-yl)-morpholin-4-yl-methanone]	> 25		
CCc1nnc(NC(=O)c2sc3nc4c(cc3c2N)CCCC4)s1 [Compound 92, 3-Amino-5,6,7,8-tetrahydro-thieno[2,3-b]quinoline-2-carboxylic acid (5-ethyl-[1,3,4]thiadiazol-2-yl)-amide]	5 to 25		
CC(C)(C)NC(=O)c1sc2nc3c(cc2c1N)CCCCC3 [Compound 283, 3-amino-N-(tert-butyl)-6,7,8,9-tetrahydro-5H-cyclohepta[b]thieno [3,2-c]pyridine-2-carboxamide]		< 5	
Cc1cc(C)c2c(n1)sc1c(=O)n(-c3cccc(C(F)(F)F)c3)cnc12 [Compound 198, 7,9-Dimethyl-3-(3-trifluoromethyl-phenyl)-3H-pyrido[3′,2′:4,5]thieno[3,2-d]pyrimidin-4-one]	> 25		
Cc1cc(C)c2c(C)c(C(=O)N3c4ccccc4CC3C)sc2n1 (centres unmarked) [Compound 398, (2-methylindolin-1-yl)-(3,4,6-trimethyl-thieno[2,3-b]pyridin-2-yl)methanone]		5 to 25	
Cc1cc(C(F)(F)F)nc2sc(C(=O)Nc3ccccc3I)c(N)c12 [Compound 131, 3-Amino-4-methyl-6-trifluoromethyl-thieno[2,3-b]pyridine-2-carboxylic acid (2-iodo-phenyl)-amide]	> 25		
Nc1c(C(=O)Nc2nccs2)sc2nc3c(c(-c4ccccc4Cl)c12)CCCC3 [Compound 10, 3-Amino-4-(2-chloro-phenyl)-5,6,7,8-tetrahydro-thieno[2,3-b]quinoline-2-carboxylic acid thiazol-2-ylamide]			EC50 [1]: < 5 µM
CCOC(=O)c1ccc(NC(=O)c2sc3nc4c(cc3c2N)CN(C(C)C)CC4)cc1 [Compound 25, 4-[(3-Amino-6-isopropyl-5,6,7,8-tetrahydro-thieno[2,3-b][1,6]naphthyridine-2-carbonyl)-amino]-benzoic acid ethyl ester]	< 5		
Nc1c(C(=O)Nc2cccc3ccccc23)sc2nc3c(cc12)CCCCC3 [Compound 374, 3-amino-N-(naphthalen-1-yl)-6,7,8,9-tetrahydro-5H-cyclohepta[b]thieno[3,2-e] pyridine-2-carboxamide]		< 5	
CN1CCc2nc3sc(C(=O)Nc4ccc(F)c(F)c4)c(N)c3cc2C1 [Compound 16, 3-Amino-6-methyl-5,6,7,8-tetrahydro-thieno[2,3-b][1,6]naphthyridine-2-carboxylic acid (3,4-difluoro-phenyl)-amide]	< 5		
Cc1ccc(-c2ccc3c(N)c(C(=O)Nc4ccccc4[N+](=O)[O-])sc3n2)cc1 [Compound 639, 3-amino-N-(2-nitrophenyl)-6-(p-tolyl) thieno[2,3-b]pyridine-2-carboxamide]		< 5	
CCc1ccccc1NC(=O)c1sc2nc3c(c(-c4ccco4)c2c1N)CCC3 [Compound 219, 3-Amino-4-furan-2-yl-6,7-dihydro-5H-cyclopenta[b]thieno[3,2-e]pyridine-2-carboxylic acid (2-ethyl-phenyl)-amide]	> 25		
COCc1cc(C)nc2sc(C(=O)Nc3cccc(Cl)c3)c(N)c12 [Compound 97, 3-Amino-4-methoxymethyl-6-methyl-thieno[2,3-b]pyridine-2-carboxylic acid (3-chloro-phenyl)-amide]	5 to 25		
C=CCc1c(C)nc2sc(C(=O)Nc3ccc(Br)cc3)c(N)c2c1C [Compound 216, 5-Allyl-3-amino-4,6-dimethyl-thieno[2,3-b]pyridine-2-carboxylic acid (4-bromo-phenyl)-amide]	> 25		

SMILES	EC50 [2] [µM]	EC50 [3] [µM]	also measured
Nc1c(C(=O)Nc2ccc(S(=O)(=O)O)cc2)sc2nc(-c3ccc(Cl)cc3)ccc12 [Compound 346, 4-[[3-amino-6-(4-chlorophenyl)thieno[2,3-b]pyridine-2-carbonyl]amino]benzenesulfonic acid]		< 5	
Cc1ccc(NC(=O)c2sc3nc(-c4ccc(Cl)cc4)ccc3c2N)cc1C [Compound 348, 3-amino-6-(4-chlorophenyl)-N-(3,4-dimethyl-phenyl)thieno [2,3-b]pyridine-2-carboxamide]		< 5	
COCc1cc(C)nc2sc(C(=O)Nc3ccc(N4CCOCC4)cc3)c(N)c12 [Compound 243, 3-Amino-4-methoxymethyl-6-methyl-thieno[2,3-b]pyridine-2-carboxylic acid (4-morpholin-4-yl-phenyl)-amide]	> 25		
CCN(CC)C(=O)c1sc2nc3c(cc2c1N)CN(C(C)C)CC3 [Compound 271, 3-Amino-6-isopropyl-5,6,7,8-tetrahydro-thieno[2,3-b][1,6]naphthyridine-2-carboxylic acid diethylamide]			EC50 [1]: > 25 µM
Cc1cc(NC(=O)c2sc3nc(-c4ccc5c(c4)OCO5)ccc3c2N)ccc1Br [Compound 590, 3-amino-6-(1,3-benzodioxol-5-yl)-N-(4-bromo-3-methyl-phenyl)thieno[2,3-b] pyridine-2-carboxamide]		< 5	
Cc1cc(C)c2c(N)c(C(=O)NCC(=O)O)sc2n1 [Compound 199, [(3-Amino-4,6-dimethyl-thieno[2,3-b]pyridine-2-carbonyl)-amino]-acetic acid]	> 25		
COc1cccc(-c2ccc3c(N)c(C(=O)Nc4ccccc4OC)sc3n2)c1 [Compound 504, 3-amino-N-(2-methoxyphenyl)-6-(3-methoxyphenyl)thieno[2,3-b]pyridine-2-carboxamide]		< 5	
CCOc1ccccc1NC(=O)c1sc2nc(-c3ccc(C)cc3)ccc2c1N [Compound 647, 3-amino-N-(2-ethoxyphenyl)-6-(p-tolyl)thieno[2,3-b]pyridine-2-carboxamide]		< 5	
CCOC(=O)N1CCC(NC(=O)c2sc3nc4c(cc3c2N)CN(CC)CC4)CC1 [Compound 275]	> 25		
CC(C)Cc1ccc2c(N)c(C(=O)Nc3ccccc3)sc2n1 [Compound 206, 3-Amino-6-isobutyl-thieno[2,3-b]pyridine-2-carboxylic acid phenylamide]			EC50 [1]: > 25 µM
N=C(Nc1cccc(C(F)(F)F)c1)c1sc2nc(-c3cccs3)ccc2c1N [Compound 319, 3-amino-6-(2-thienyl)-N-[3-(trifluoromethyl)phenyl]thieno[2,3-b]pyridine-2-carboxamidine]		< 5	
Nc1c(C(=O)Nc2ccccc2F)sc2nc3c(cc12)CCCCC3 [Compound 79, 3-Amino-6,7,8,9-tetrahydro-5H-1-thia-10-aza-cyclohepta[f]indene-2-carboxylic acid (2-fluoro-phenyl)-amide]			EC50 [1]: 5 to 25 µM
Nc1c(C(=O)Nc2nnc(-c3ccccc3)s2)sc2nc(-c3cccs3)cc(C(F)(F)F)c12 [Compound 5, 3-Amino-6-thiophen-2-yl-4-trifluoromethyl-thieno[2,3-b]pyridine-2-carboxylic acid (5-phenyl-[1,3,4]thiadiazol-2-yl)-amide]	< 5		
Nc1c(C(=O)Nc2nccs2)sc2nc3c(c(-c4ccco4)c12)CCCC3 [Compound 86, 3-Amino-4-furan-2-yl-5,6,7,8-tetrahydro-thieno[2,3-b]quinoline-2-carboxylic acid thiazol-2-ylamide]	5 to 25		
O=C(Nc1ccc(Cl)cc1)c1sc2ncccc2c1OCc1ccc(Cl)c(Cl)c1 [Compound 376, N-(4-chlorophenyl)-3-[(3,4-dichlorophenyl)methoxy]thieno[2,3-b] pyridine-2-carboxamide]		5 to 25	
Nc1c(C(=O)Nc2ccc(Br)cc2)sc2ncccc12 [Compound 423, 3-amino-N-(4-bromophenyl)thieno[2,3-b] pyridine-2-carboxamide]		< 5	
CCN(CC)C(=O)c1sc2nc(-c3ccccc3)cc(C(F)(F)F)c2c1N [Compound 196, 3-Amino-6-phenyl-4-trifluoromethyl-thieno[2,3-b]pyridine-2-carboxylic acid diethylamide]	> 25		
CN1CCc2nc3sc(C(=O)NCc4ccc(F)cc4)c(N)c3cc2C1 [Compound 14, 3-Amino-6-methyl-5,6,7,8-tetrahydro-thieno[2,3-b][1,6]naphthyridine-2-carboxylic acid 4-fluoro-benzylamide]	< 5		
Nc1c(C(=O)Nc2ccc(S(N)(=O)=O)cc2)sc2nc3c(cc12)CCC3 [Compound 144, 3-Amino-6,7-dihydro-5H-cyclopenta[b]thieno[3,2-e]pyridine-2-carboxylic acid (4-sulfamoyl-phenyl)-amide]	> 25		
